Test results published in patent US20230093099A1, “COMPOUNDS AND METHODS OF TREATING CANCERS” (CULLGEN (SHANGHAI), INC., priority 2019, published 2023).

These molecules were tested on RS4;11 cells (assay: Cell viability assay (CellTiter-Glo) in RS4;11 cells). Conditions: Homo sapiens, 72 h; RS4;11 ALL cells treated for three days; read-out: cell viability inhibition IC50.
Assay type: cell-based
Protocol: Specific exemplary heterobifunctional compounds were first characterized using cell viability assays. RS4;11 ALL cells were treated with bifunctional degraders for three days. The IC50 values ranged from 2 nM to over 10 uM.
MV4;11, RS4;11, Kasumi-1, HEL and other cells were treated with NVP-BSK805, TG101209 or selected degraders for 3 days at indicated concentrations following a 3-fold serial dilution.
HEL, RS4;11, MV4;11, Kasumi-1 and other cells were cultured at 37° C. with 5% CO2 in RPMI 1640 or DMEM Medium supplemented with 10% fetal bovine serum. Cells were authenticated using the short tandem repeat (STR) assays. Mycoplasma test results were negative.
Cells were seeded at a density of 5000 cells per well in 96-well assay plates and treated with test compounds following a 8-point or 12-point 3-fold serial dilution. Three days later, cell viability was determined using the CellTiter-Glo assay kit according to the manufacturer's instructions. The dose-response curves were determined and IC50 values were calculated using the GraphPad Prism software following a nonlinear regression (least squares fit) method.

Row | IC50 | Compound
1 | < 100 nM | CS(=O)(=O)c1ccc(-c2cccc3nc(Nc4ccc(N5CCN(C(=O)CCCCCCCNc6ccc7c(c6)C(=O)N(C6CCC(=O)NC6=O)C7=O)CC5)cc4)nn23)cc1 (stereo not drawn) [JA-203]
2 | < 100 nM | CS(=O)(=O)c1ccc(-c2cccc3nc(Nc4ccc(N5CCN(C(=O)CCNc6ccc7c(c6)C(=O)N(C6CCC(=O)NC6=O)C7=O)CC5)cc4)nn23)cc1 (stereo not drawn) [JA-202]

Same assay, conditions: Homo sapiens, 72 h; RS4;11 cells; cell viability, 3 days, CellTiter-Glo; read-out: IC50

Row | Compound | IC50
3 | O=C(CN1CCC(n2cc(-c3cnc4cccc(-c5cc(F)c(CN6CCOCC6)c(F)c5)c4n3)cn2)CC1)NCCOCCOCCOCCOCCOCCNc1ccc2c(c1)C(=O)N(C1CCC(=O)NC1=O)C2=O (stereo not drawn) [JA-173, 2-(4-(4-(8-(3,5-Difluoro-4-(morpholinomethyl)phenyl)quinoxalin-2-yl)-1H-pyrazol-1-yl)piperidin-1-yl)-N-(17-((2-(2,6-dioxopiperidin-3-yl)-1,3-dioxoisoindolin-5-yl)amino)-3,6,9,12,15-pentaoxaheptadecyl)acetamide] | > 10000 nM
4 | O=C(CN1CCC(n2cc(-c3cnc4cccc(-c5cc(F)c(CN6CCOCC6)c(F)c5)c4n3)cn2)CC1)NCCOCCOCCOCCOCCNc1ccc2c(c1)C(=O)N(C1CCC(=O)NC1=O)C2=O (stereo not drawn) [JA-172, 2-(4-(4-(8-(3,5-Difluoro-4-(morpholinomethyl)phenyl)quinoxalin-2-yl)-1H-pyrazol-1-yl)piperidin-1-yl)-N-(14-((2-(2,6-dioxopiperidin-3-yl)-1,3-dioxoisoindolin-5-yl)amino)-3,6,9,12-tetraoxatetradecyl)acetamide] | > 10000 nM
5 | Cc1cnc(Nc2ccc(N3CCN(C(=O)CCCNc4cccc5c4C(=O)N(C4CCC(=O)NC4=O)C5=O)CC3)cc2)nc1Nc1cccc(S(=O)(=O)NC(C)(C)C)c1 (stereo not drawn) [JA-008, N-(tert-Butyl)-3-((2-((4-(4-(4-((2-(2,6-dioxopiperidin-3-yl)-1,3-dioxoisoindolin-4-yl)amino)butanoyl)piperazin-1-yl)phenyl)amino)-5-methylpyrimidin-4-yl)amino)benzenesulfonamide] | 1460 nM
6 | O=C1CCC(N2Cc3ccc(OCCCCCC(=O)N4CCC(n5cc(-c6cnc7cccc(-c8cc(F)c(CN9CCOCC9)c(F)c8)c7n6)cn5)CC4)cc3C2=O)C(=O)N1 (stereo not drawn) [JA-274, 3-(6-((6-(4-(4-(8-(3,5-Difluoro-4-(morpholinomethyl)phenyl)quinoxalin-2-yl)-1H-pyrazol-1-yl)piperidin-1-yl)-6-oxohexyl)oxy)-1-oxoisoindolin-2-yl)piperidine-2,6-dione] | 1670 nM
7 | O=C1CCC(N2C(=O)c3cccc(NCCCCC(=O)N4CCC(n5cc(-c6cnc7cccc(-c8cc(F)c(CN9CCOCC9)c(F)c8)c7n6)cn5)CC4)c3C2=O)C(=O)N1 (stereo not drawn) [JA-003, 4-[[5-[4-[4-[8-[3,5-Difluoro-4-(morpholinomethyl)phenyl]quinoxalin-2-yl]pyrazol-1-yl]-1-piperidyl]-5-oxo-pentyl]amino]-2-(2,6-dioxo-3-piperidyl)isoindoline-1,3-dione] | 6590 nM
8 | Cc1cnc(Nc2ccc(N3CCN(C(=O)CCOCCOCCOCCOCCNc4cccc5c4C(=O)N(C4CCC(=O)NC4=O)C5=O)CC3)cc2)nc1Nc1cccc(S(=O)(=O)NC(C)(C)C)c1 (stereo not drawn) [JA-020, N-(tert-Butyl)-3-((2-((4-(4-(1-((2-(2,6-dioxopiperidin-3-yl)-1,3-dioxoisoindolin-4-yl)amino)-3,6,9,12-tetraoxapentadecan-15-oyl)piperazin-1-yl)phenyl)amino)-5-methylpyrimidin-4-yl)amino)benzenesulfonamide] | 633 nM
9 | Cn1c(=O)n(C2CCC(=O)NC2=O)c2cccc(NCCCCCC(=O)N3CCC(n4cc(-c5cnc6cccc(-c7cc(F)c(CN8CCOCC8)c(F)c7)c6n5)cn4)CC3)c21 (stereo not drawn) [JA-282, 3-(4-((6-(4-(4-(8-(3,5-Difluoro-4-(morpholinomethyl)phenyl)quinoxalin-2-yl)-1H-pyrazol-1-yl)piperidin-1-yl)-6-oxohexyl)amino)-3-methyl-2-oxo-2,3-dihydro-1H-benzo[d]imidazol-1-yl)piperidine-2,6-dione] | > 500 nM
10 | Cc1cnc(Nc2ccc(N3CCN(C(=O)CCNc4ccc5c(c4)C(=O)N(C4CCC(=O)NC4=O)C5=O)CC3)cc2)nc1Nc1cccc(S(=O)(=O)NC(C)(C)C)c1 (stereo not drawn) [JA-226, N-(tert-butyl)-3-((2-((4-(4-(3-((2-(2,6-dioxopiperidin-3-yl)-1,3-dioxoisoindolin-5-yl)amino)propanoyl)piperazin-1-yl)phenyl)amino)-5-methylpyrimidin-4-yl)amino)benzenesulfonamide] | 365 nM
11 | O=C1CCC(N2Cc3ccc(NCCCCCC(=O)N4CCC(n5cc(-c6cnc7cccc(-c8cc(F)c(CN9CCOCC9)c(F)c8)c7n6)cn5)CC4)cc3C2=O)C(=O)N1 (stereo not drawn) [JA-272, 3-(6-((6-(4-(4-(8-(3,5-Difluoro-4-(morpholinomethyl)phenyl)quinoxalin-2-yl)-1H-pyrazol-1-yl)piperidin-1-yl)-6-oxohexyl)amino)-1-oxoisoindolin-2-yl)piperidine-2,6-dione] | 520 nM
12 | CS(=O)(=O)c1ccc(-c2cccc3nc(Nc4ccc(N5CCN(C(=O)CCOCCOCCNc6ccc7c(c6)C(=O)N(C6CCC(=O)NC6=O)C7=O)CC5)cc4)nn23)cc1 (stereo not drawn) [JA-201] | 241 nM

Other lines, results leading:

Row | IC50 | Compound
13 | > 10000 nM | Cc1ncsc1-c1ccc(CNC(=O)[C@@H]2C[C@@H](O)CN2C(=O)[C@@H](NC(=O)CCOCCNC(=O)CN2CCC(n3cc(-c4cnc5cccc(-c6cc(F)c(CN7CCOCC7)c(F)c6)c5n4)cn3)CC2)C(C)(C)C)cc1 [JA-160, (2S,4R)-1-((S)-2-(3-(2-(2-(4-(4-(8-(3,5-Difluoro-4-(morpholinomethyl)phenyl)quinoxalin-2-yl)-1H-pyrazol-1-yl)piperidin-1-yl)acetamido)ethoxy)propanamido)-3,3-dimethylbutanoyl)-4-hydroxy-N-(4-(4-methylthiazol-5-yl)benzyl)pyrrolidine-2-carboxamide]
14 | > 10000 nM | Cc1ncsc1-c1ccc(CNC(=O)[C@@H]2C[C@@H](O)CN2C(=O)[C@@H](NC(=O)CCCNC(=O)CN2CCC(n3cc(-c4cnc5cccc(-c6cc(F)c(CN7CCOCC7)c(F)c6)c5n4)cn3)CC2)C(C)(C)C)cc1 [JA-152, (2S,4R)-1-((S)-2-(4-(2-(4-(4-(8-(3,5-Difluoro-4-(morpholinomethyl)phenyl)quinoxalin-2-yl)-1H-pyrazol-1-yl)piperidin-1-yl)acetamido)butanamido)-3,3-dimethylbutanoyl)-4-hydroxy-N-(4-(4-methylthiazol-5-yl)benzyl)pyrrolidine-2-carboxamide]
15 | > 10000 nM | Cc1cnc(Nc2ccc(N3CCN(CC(=O)NCCOCCOCCOCCC(=O)N[C@H](C(=O)N4C[C@H](O)C[C@H]4C(=O)NCc4ccc(-c5scnc5C)cc4)C(C)(C)C)CC3)cc2)nc1Nc1cccc(S(=O)(=O)NC(C)(C)C)c1 [JA-221, (2S,4R)-1-((S)-17-(tert-butyl)-1-(4-(4-((4-((3-(N-(tert-butyl)sulfamoyl)phenyl)amino)-5-methylpyrimidin-2-yl)amino)phenyl)piperazin-1-yl)-2,15-dioxo-6,9,12-trioxa-3,16-diazaoctadecan-18-oyl)-4-hydroxy-N-(4-(4-methylthiazol-5-yl)benzyl)pyrrolidine-2-carboxamide]
16 | > 10000 nM | Cc1ncsc1-c1ccc(CNC(=O)[C@@H]2C[C@@H](O)CN2C(=O)[C@@H](NC(=O)CCOCCOCCOCCNC(=O)CN2CCN(c3ccc(Nc4nc5cccc(-c6ccc(S(C)(=O)=O)cc6)n5n4)cc3)CC2)C(C)(C)C)cc1 [JA-137, (2S,4R)-1-((S)-17-(tert-Butyl)-1-(4-(4-((5-(4-(methylsulfonyl)phenyl)-[1,2,4]triazolo[1,5-a]pyridin-2-yl)amino)phenyl)piperazin-1-yl)-2,15-dioxo-6,9,12-trioxa-3,16-diazaoctadecan-18-oyl)-4-hydroxy-N-(4-(4-methylthiazol-5-yl)benzyl)pyrrolidine-2-carboxamide]
17 | 22.8 nM | CS(=O)(=O)c1ccc(-c2cccc3nc(Nc4ccc(N5CCN(C(=O)CCCCCCCNc6ccc7c(c6)C(=O)N(C6CCC(=O)NC6=O)C7=O)CC5)cc4)nn23)cc1 (stereo not drawn) [JA-203]
18 | > 10000 nM | Cc1ncsc1-c1ccc(CNC(=O)[C@@H]2C[C@@H](O)CN2C(=O)[C@@H](NC(=O)CCCCCCCCCNC(=O)CN2CCN(c3ccc(Nc4nc5cccc(-c6ccc(S(C)(=O)=O)cc6)n5n4)cc3)CC2)C(C)(C)C)cc1 [JA-120, (2S,4R)-1-((S)-3,3-Dimethyl-2-(10-(2-(4-(4-((5-(4-(methylsulfonyl)phenyl)-[1,2,4]triazolo[1,5-a]pyridin-2-yl)amino)phenyl)piperazin-1-yl)acetamido)decanamido)butanoyl)-4-hydroxy-N-(4-(4-methylthiazol-5-yl)benzyl)pyrrolidine-2-carboxamide]
19 | > 10000 nM | Cc1ncsc1-c1ccc(CNC(=O)[C@@H]2C[C@@H](O)CN2C(=O)[C@@H](NC(=O)CCCCNC(=O)CN2CCN(c3ccc(Nc4nc5cccc(-c6ccc(S(C)(=O)=O)cc6)n5n4)cc3)CC2)C(C)(C)C)cc1 [JA-130, (2S,4R)-1-((S)-3,3-Dimethyl-2-(5-(2-(4-(4-((5-(4-(methylsulfonyl)phenyl)-[1,2,4]triazolo[1,5-a]pyridin-2-yl)amino)phenyl)piperazin-1-yl)acetamido)pentanamido)butanoyl)-4-hydroxy-N-(4-(4-methylthiazol-5-yl)benzyl)pyrrolidine-2-carboxamide]
20 | 2750 nM | Cc1ncsc1-c1ccc(CNC(=O)[C@@H]2C[C@@H](O)CN2C(=O)[C@@H](NC(=O)CCOCCOCCC(=O)N2CCN(c3ccc(Nc4nc5cccc(-c6ccc(S(C)(=O)=O)cc6)n5n4)cc3)CC2)C(C)(C)C)cc1 [JA-070, (2S,4R)-1-((S)-3,3-Dimethyl-2-(3-(2-(3-(4-(4-((5-(4-(methylsulfonyl)phenyl)-[1,2,4]triazolo[1,5-a]pyridin-2-yl)amino)phenyl)piperazin-1-yl)-3-oxopropoxy)ethoxy)propanamido)butanoyl)-4-hydroxy-N-(4-(4-methylthiazol-5-yl)benzyl)pyrrolidine-2-carboxamide]
21 | 108 nM | CS(=O)(=O)c1ccc(-c2cccc3nc(Nc4ccc(N5CCN(C(=O)CCNc6ccc7c(c6)C(=O)N(C6CCC(=O)NC6=O)C7=O)CC5)cc4)nn23)cc1 (stereo not drawn) [JA-202]
